Entries after “also recorded” stand apart in the source; their conditions may differ.

For experiment [1], the system named is serum antibodies. Put plainly: ELISA for serum antibodies specific for the individual vaccine peptides, human sera. The following applies: for Number of individuals with a humoral response to the vaccine peptides, Cancer controls n = 54 / Percent of individuals with a humoral response to the vaccine peptides, Cancer controls n = 54: non-trial cancer controls, sera 1:25 dilution; for Number of individuals with a humoral response to the vaccine peptides, Trial subjects n = 6 / Percent of individuals with a humoral response to the vaccine peptides, Trial subjects n = 6: trial subjects who completed four vaccinations, detectable response at any time point considered positive. Background: In an ELISA, binding on a coated surface is turned into a signal by an enzyme label.

Experiment [2] is described as follows: Delayed type hypersensitivity (DTH) testing. The conditions noted are these: for Induration area, DTH testing: 48 hours following intradermal injection of individual peptide, after four vaccinations; for Number of patients with a peptide-specific DTH response: six trial patients who underwent DTH testing. Type of experiment: in vivo, human. As to the method: Delayed type hypersensitivity (DTH) testing was carried out 1 month after the final vaccination. […] Induration of […]10 mm^2 at 48 hours after injection was considered positive.

Experiment [3] concerns serum antibodies. In words: Immunization of sheep with the vaccine, anti-peptide ELISA. The conditions noted are these: for Response higher in the first immunized sheep, on average: first versus second sheep; for Response to peptide using the polyclonal sheep sera or rabbit sera: polyclonal sheep sera (FIG. 2A) or rabbit sera (data not shown); for Polyclonal sera with reactivity to peptide obtained from immunized sheep: 200 μg peptide mixture in CpG DNA adjuvant, prime and boost.

Setting [4] is: normal controls, n = 30, not vaccinated.

As for H-AGLFCQQYYTTPLTFGGGT-OH [Peptide 4], the “Number of individuals with a humoral response to the vaccine peptides, Cancer controls n = 54” value (“Number of individuals … Cancer controls n = 54” below) with serum antibodies [1] was 0. Besides, in the experiment on serum antibodies [1] (setting [4]), the “Number of individuals with a humoral response to the vaccine peptides, Normal controls n = 30” value (“Number of individuals … Normal controls n = 30” below) is on record as 0. The “Number of individuals with a humoral response to the vaccine peptides, Trial subjects n = 6” value (“Number of individuals … Trial subjects n = 6” below) is reported as 0 in the experiment with serum antibodies [1] and “No patient demonstrated a response” in the experiment on serum antibodies [1] (listed as peptide 4). Moreover, the “Induration area, DTH testing” value in experiment [2] (patient 012) is “Neg (Neg indicates that induration (if any) was less than 10 mm^2)”; in experiment [2] (patient 014) it was “Neg (Neg indicates that induration (if any) was less than 10 mm^2)”; in experiment [2] (patient 015), 13 mm^2; in experiment [2] (patient 016) it was “Neg (Neg indicates that induration (if any) was less than 10 mm^2)”; in experiment [2] (patient 017) it was “Neg (Neg indicates that induration (if any) was less than 10 mm^2)”; in experiment [2] (patient 018) it was “Neg (Neg indicates that induration (if any) was less than 10 mm^2)”. In addition, the “Number of patients with a peptide-specific DTH response” value (from here on “Number of patients”) in experiment [2] is on record as “one”. Moreover, the “Response higher in the first immunized sheep, on average” value in the experiment on serum antibodies [3] is recorded as 50%. Besides, in the experiment with serum antibodies [3], the “Response to peptide using the polyclonal sheep sera or rabbit sera” value (“Response to peptide” for short) is “positive responses”. The “Polyclonal sera with reactivity to peptide obtained from immunized sheep” value (from here on “Polyclonal sera with reactivity”) in the experiment on serum antibodies [3] (two sheep) was “obtained from both sheep”.

With H-AVYYCLLQALKHWGQGT-OH [Peptide 2], the “Number of individuals … Cancer controls n = 54” value in the experiment on serum antibodies [1] came out at 1. Further, the “Percent of individuals with a humoral response to the vaccine peptides, Cancer controls n = 54” value in the experiment with serum antibodies [1] was found to be 1.9%. Further, the “Number of individuals … Normal controls n = 30” value in the experiment with serum antibodies [1] (setting [4]) is 0. Besides, the “Isotype of peptide-specific serum antibodies” value with serum antibodies [1] (subject 012) is “IgG1”; in the experiment with serum antibodies [1] (subject 014), “IgG1 and IgG3”; in the experiment on serum antibodies [1] (subject 015), “IgG1 and IgG3”; in the experiment with serum antibodies [1] (subject 016), “IgG4”. Moreover, the figures for the “Number of individuals … Trial subjects n = 6” value in the experiment on serum antibodies [1] and with serum antibodies [1] (listed as peptide 2) were 4 and “four of the six”, respectively. The “Percent of individuals with a humoral response to the vaccine peptides, Trial subjects n = 6” value in the experiment on serum antibodies [1] worked out at 66.7%. The “Induration area, DTH testing” value is 189 mm^2 in experiment [2] (patient 012); 20 mm^2 in experiment [2] (patient 014); 86 mm^2 in experiment [2] (patient 015); “Neg (Neg indicates that induration (if any) was less than 10 mm^2)” in experiment [2] (patient 016); 71 mm^2 in experiment [2] (patient 017); 38 mm^2 in experiment [2] (patient 018). Further, the “Number of patients” value in experiment [2] is “five”. Also, the “Response higher in the first immunized sheep, on average” value in the experiment with serum antibodies [3] is 50%. Moreover, the “Polyclonal sera with reactivity” value in the experiment with serum antibodies [3] (two sheep) is given as “obtained from both sheep”.

Turning to “H-GVYYCMQGLQTPYTFGEGT -OH (H-GVYYCMQGLQTPYTFGEGT-OH) [Peptide 8]”, the “Number of individuals … Cancer controls n = 54” value in the experiment with serum antibodies [1] is recorded as 0. Further, in the experiment with serum antibodies [1] (setting [4]), the “Number of individuals … Normal controls n = 30” value turned out to be 0. Besides, the “Isotype of peptide-specific serum antibodies” value in the experiment with serum antibodies [1] (subject 012) and in the experiment with serum antibodies [1] (subject 015) was “undetectable” in each case. Further, the “Number of individuals … Trial subjects n = 6” value in the experiment on serum antibodies [1] is 2; in the experiment with serum antibodies [1] (listed as peptide 8), “two”. Besides, the “Percent of individuals with a humoral response to the vaccine peptides, Trial subjects n = 6” value with serum antibodies [1] stood at 33.3%. Further, the “Induration area, DTH testing” value in experiment [2] (patient 012) is recorded as 113 mm^2; in experiment [2] (patient 014), “Neg (Neg indicates that induration (if any) was less than 10 mm^2)”; in experiment [2] (patient 015) it was 38 mm^2; in experiment [2] (patient 016) it was “Neg (Neg indicates that induration (if any) was less than 10 mm^2)”; in experiment [2] (patient 017) it was 44 mm^2; in experiment [2] (patient 018), “Neg (Neg indicates that induration (if any) was less than 10 mm^2)”. In experiment [2], the “Number of patients” value is recorded as “three”. Further, the “Serum antibody titres, first versus second immunized sheep” value in the experiment with serum antibodies [3] (two sheep) is “equivalent”. The “Polyclonal sera with reactivity” value in the experiment with serum antibodies [3] (two sheep) is “obtained from both sheep”.

Regarding H-KLLIHWASTRESGVPDR-OH [Peptide 3], in the experiment on serum antibodies [1], the “Number of individuals … Cancer controls n = 54” value is 0 and the “Number of individuals … Trial subjects n = 6” value was found to be 0. For the same substance, in the experiment on serum antibodies [1] (setting [4]), the “Number of individuals … Normal controls n = 30” value stood at 1 and the “Percent of individuals with a humoral response to the vaccine peptides, Normal controls n = 30” value came to 3.3%. In addition, in the experiment with serum antibodies [1] (listed as peptide 3), the “Number of individuals … Trial subjects n = 6” value was “No patient demonstrated a response”. In addition, the “Number of patients” value in experiment [2] is “responses were observed in at least one individual for all of the peptides, except for peptides 3 and 6”. In addition, the “Response to peptide” value in the experiment on serum antibodies [3] was “positive responses”. For the same substance, the “Polyclonal sera with reactivity” value in the experiment on serum antibodies [3] (two sheep) is listed as “neither animal; also recorded: could not be generated”.

Turning to H-LLIYLGSTRASGVPDR-OH [Peptide 7], in the experiment with serum antibodies [1], the “Number of individuals … Cancer controls n = 54” value is 1. For the same substance, the “Percent of individuals with a humoral response to the vaccine peptides, Cancer controls n = 54” value with serum antibodies [1] was determined as 1.9%. Besides, the “Number of individuals … Normal controls n = 30” value in the experiment on serum antibodies [1] (setting [4]) is given as 0. The figures for the “Number of individuals … Trial subjects n = 6” value in the experiment on serum antibodies [1] and in the experiment on serum antibodies [1] (listed as peptide 7) were 0 and “No patient demonstrated a response”, respectively. In addition, the “Induration area, DTH testing” value in experiment [2] (patient 012) was 16 mm^2; in experiment [2] (patient 014), “Neg (Neg indicates that induration (if any) was less than 10 mm^2)”; in experiment [2] (patient 015), “Neg (Neg indicates that induration (if any) was less than 10 mm^2)”; in experiment [2] (patient 016) it was 39 mm^2; in experiment [2] (patient 017), “Neg (Neg indicates that induration (if any) was less than 10 mm^2)”; in experiment [2] (patient 018) it was “Neg (Neg indicates that induration (if any) was less than 10 mm^2)”. For the same substance, in experiment [2], the “Number of patients” value is recorded as “two”. The “Response to peptide” value in the experiment with serum antibodies [3] is “positive responses”. The “Polyclonal sera with reactivity” value in the experiment with serum antibodies [3] (two sheep) was “neither animal; also recorded: could not be generated”.

Turning to “H-PKLLIYKASSLESGVPSR-OH [HIV-L2, reference compound]”, the “Induration area, DTH testing” value in experiment [2] (patient 012), in experiment [2] (patient 014), in experiment [2] (patient 015), in experiment [2] (patient 016), in experiment [2] (patient 017) and in experiment [2] (patient 018) was “Neg (Neg indicates that induration (if any) was less than 10 mm^2)” in each case.
